Measured values reported in patent publication US9776967B2, “Carboxamide derivatives as pesticidal compounds” (priority 2013, dated 2017).
Like-named read-outs stand apart in the source and are kept apart here.

What was measured:
Cooperia curticei = assay: In vitro assay with Cooperia curticei (COOPCU), larval mortality; details: 120 h, read-out: activity (larval mortality)
Protocol: In Vitro Assay with Cooperia curticei (COOPCU)
(§1) Solvent: Dimethyl Sulfoxide
(§2) To produce a suitable preparation of active compound, 10 mg of active compound are dissolved in 0.5 ml solvent, and the concentrate is diluted with “Ringer's solution” to the desired concentration.
Approximately 40 nematode larvae (Cooperia curticei) are transferred into a test tube containing the compound solution.
After 5 days percentage of larval mortality is recorded. 100% efficacy means all larvae are killed; 0% efficacy means no larvae are killed.

Meloidogyne incognita = Meloidogyne incognita (MELGIN) assay, gall formation on salad seedlings; type: in vivo; details: 336 h, after 14 days, read-out: nematicidal activity (percentage of gall formation; 100% = no galls)
Protocol: Meloidogyne incognita (MELGIN) Assay
Solvent: 125.0 parts by weight of acetone
To produce a suitable preparation of active compound, 1 part by weight of active compound is mixed with the stated amount of solvent, and the concentrate is diluted with water to the desired concentration.
Vessels are filled with sand, a solution of the active ingredient, a suspension containing eggs and larvae of the southern root-knot nematode (Meloidogyne incognita) and salad seeds. The salad seeds germinate and the seedlings grow. Galls develop in the roots.
After 14 days the nematicidal activity is determined on the basis of the percentage of gall formation. 100% means no galls were found and 0% means the number of galls found on the roots of the treated plants was equal to that in untreated control plants.

[1] = system: Nippostrongylus brasiliensis; assay: In vitro assay with Nippostrongylus brasiliensis (NIPOBR), acetylcholine esterase readout; details: adult worms, read-out: activity (reduction of AChE compared to negative control); for inhibition at 1 ppm: 1 ppm (1 μg/ml); for inhibition at 10 ppm: 10 ppm (10 μg/ml)
Protocol: In Vitro Assay with Nippostrongylus brasiliensis (NIPOBR)
Adult Nippostrongylus brasiliensis were washed with saline buffer containing 100 U/ml penicillin, 0.1 mg/ml streptomycin and 2.5 μg/ml amphotericin B. Test compounds were dissolved in DMSO and worms were incubated in medium in a final concentration of 10 μg/ml (10 ppm) respectively 1 μg/ml (1 ppm). An aliquot of the medium was used to determine the acetylcholine esterase activity in comparison to a negative control. The principle of measuring acetylcholine esterase as readout for anthelmintic activity was described in Rapson et al (1986) and Rapson et al (1987).

Haemonchus contortus = assay: In vitro assay with Haemonchus contortus (HAEMCO), larval mortality; details: 120 h; for mortality at 20 ppm: read-out: activity (larval mortality)
Protocol: In Vitro Assay with Haemonchus contortus (HAEMCO)
as §1, §2
Approximately 40 larvae of the red stomach worm (Haemonchus contortus) are transferred into a test tube containing compound solution.
After 5 days percentage of larval mortality are recorded. 100% efficacy means all larvae are killed, 0% efficacy means no larvae are killed.

[2] = LogP by HPLC on reversed phase columns (EEC directive 79/831 Annex V.A8); type: physicochemical
Protocol: Calibration was done with straight-chain alkan2-ones (with 3 to 16 carbon atoms) with known Log P values (measurement of Log P values using retention times with linear interpolation between successive alkanones). Lambda-max-values were determined using UV-spectra from 200 nm to 400 nm and the peak values of the chromatographic signals.

SMILES	mortality at 20 ppm (Cooperia curticei)	pest or weed control at 20 ppm (Meloidogyne incognita)	inhibition at 1 ppm [1]	inhibition at 10 ppm [1]	mortality at 20 ppm (Haemonchus contortus)	chromatographic logP ([2]; logP (HCOOH) [a])	Emax at 0.8 ppm (Haemonchus contortus; HAEMCO, 0.8 ppm, 5dat, comparative example, read-out: % Efficacy)	Emax at 4 ppm (Haemonchus contortus; HAEMCO, 4 ppm, 5dat, comparative example, read-out: % Efficacy)	Emax at 20 ppm (Haemonchus contortus; HAEMCO, 20 ppm, 5dat, comparative example, read-out: % Efficacy)	mortality at 20 ppm (Haemonchus contortus; 20 ppm, after 5 days)	chromatographic logP ([2]; LC-UV, acidic range, 0.1% formic acid in water and acetonitrile, read-out: logP (HCOOH) [a])
O=C(NCC(F)(F)c1ncc(-c2cc(Cl)cc(Cl)c2)cc1Cl)c1ccccc1C(F)(F)F [Example 11]	100%	90%	≥ 60%	≥ 60%	100%	4.64	–	–	–	–	–
O=C(NCC(F)(F)c1ncc(-c2ccc(Cl)cc2Cl)cc1Cl)c1ccccc1C(F)(F)F [Example 15]	100%	90%	≥ 60%	≥ 60%	100%	4.57	–	–	–	–	–
O=C(NCC(F)(F)c1ncc(-c2ccc(F)cc2)cc1Cl)c1ccccc1C(F)(F)F [Example 24]	100%	100%	≥ 60%	≥ 60%	100%	3.74	100%	100%	100%	–	–
COc1ccc(-c2cnc(C(F)(F)CNC(=O)c3ccccc3C(F)(F)F)c(Cl)c2)cc1 [Example 7]	100%	100%	≥ 60%	≥ 60%	–	–	–	–	–	100%	3.68
